Values after ≈ are worked out from the molar mass of the structure shown. Like-named read-outs stand apart in the source and are kept apart here.
How the values were obtained:
Rhizoctonia solani (Rs) = test: In vitro pathogen growth inhibition assay, Rs (mycelial plugs); type: cell-based; settings: mycelial plugs; for IC90: Rhizoctonia solani, 48 h
How it was run: (§1)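 Spores in 17% V8 liquid medium, or 1.5 mm Rs mycelial plugs in ¼ PDB, incubated with compound; final concentration checked by OD600 for precipitation. OD readings at 24 and 48 h, blank-subtracted, plus visual ratings; value is concentration giving ≥90% growth inhibition.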

Septoria tritici (St) = test: In vitro pathogen growth inhibition assay, St; type: cell-based; settings: Zymoseptoria tritici, 48 h
How it was run: as §1

[1] = system: Fusarium virguliforme (Fv); test: In vitro pathogen growth inhibition assay, Fv; type: cell-based
How it was run: as §1

[2] = system: Mycosphaerella graminicola (synthetic Septoria tritici); test: Foliar protection test for wheat septoria leaf blotch control; type: in vivo; settings: foliar spray on Triticum aestivum cv. WinterHawk, inoculated 1 hour after treatment, evaluated 16 days later
Phakopsora pachyrhizi = test: Foliar protection test for Asian soybean rust control; type: in vivo; settings: foliar application to soybean (Glycine max AG4832), percent disease area evaluated 14 days later
Botrtyis cinerea (Bc) = test: In vitro pathogen growth inhibition assay, Bc; type: cell-based; settings: 48 h
How it was run: as §1

[3] = system: Fusarium moniliforme (Fm); test: In vitro pathogen growth inhibition assay, Fm; type: cell-based; settings: Fusarium verticillioides
How it was run: as §1

[4] = system: Phytophthora capsici (Pc); test: In vitro pathogen growth inhibition assay, Pc; type: cell-based; settings: 48 h
How it was run: as §1

Diplodia maydis (Dm) = test: In vitro pathogen growth inhibition assay, Dm; type: cell-based; settings: Stenocarpella maydis, 48 h
How it was run: as §1

[5] = system: Collectotrichum graminicola (Cg); test: In vitro pathogen growth inhibition assay, Cg; type: cell-based; settings: 48 h
How it was run: as §1

[6] = system: Blumeria graminis f. sp. hordei; test: Foliar protection test for barley powdery mildew control; type: in vivo; settings: foliar spray on Hordeum vulgare cv. Perry, inoculated 24 hours after treatment, evaluated 7 days later
Procedure: Plants (Hordeum vulgare cv. Perry) were grown for 6 days in 2-inch square pots containing Metromix 200 medium amended with fertilizer. […] After inoculation with the pathogen of Blumeria graminis f. sp. hordei, plants were kept at conditions of 20 to 22° C., 70% relative humidity, and 200 uM of light to facilitate infection and disease development. […] An atomizer was used for applying the solution onto both sides of the leaves until thoroughly wetted. […] At 24 hours after treatment, the plants were moved to a cooler chamber and inoculated by shaking well-colonized, untreated stock plants above the treated plants. This allowed producing a settling cloud of spores and resulting in uniform infection. Efficacy was evaluated in 7 days later by examining leaves for colonization and growth of mildew. Table 4 lists the results of barley powdery mildew control at a compound concentration of 10 ppm or lower.

Puccinia triticina = test: Foliar protection test for wheat leaf rust control; type: in vivo; settings: foliar application to wheat (Triticum aestivum cv. Winterhawk), evaluated 10 days later
Fusarium graminearum = type: in vivo; settings: spray on flowering Triticum aestivum cv. Samson, inoculated 24 hours after treatment, evaluated 14 days later
Sphaerotheca fuliginea = test: Foliar protection for cucumber powdery mildew control; type: in vivo; settings: foliar spray on Cucumis sativus cv. Straight Eight, inoculated 24 hours after treatment, evaluated 7 days later
Procedure: Plants (Cucumis sativus cv. Straight Eight) were grown for 10 days in 2.5-inch square pots containing Metromix 200 medium amended with fertilizer. For propagation, plants were maintained in a growth chamber at conditions of 23 to 27° C., 16 hour light cycle, ambient humidity, and with sub-irrigation as needed. After inoculation with the pathogen of Sphaerotheca fuliginea, plants were kept at conditions of 23 to 27° C., 16 hour light cycle, 60% relative humidity, and with sub-irrigation as needed to facilitate infection and disease development. […] An atomizer was used for applying the solution onto both sides of the leaves until thoroughly wetted. […] At 24 hours after treatment, the plants were moved to a cooler chamber and inoculated by shaking well-colonized, untreated stock plants above the treated plants. This allowed producing a settling cloud of spores and resulting in uniform infection. Inoculated plants were kept near other sporulating stock plants to allow for infection of newly emerging leaves. Efficacy was evaluated in 7 days later by examining leaves for colonization and growth of mildew. Table 5 lists the results of cucumber powdery mildew control at a compound concentration of 10 ppm or lower.

[7] = ≥90% inhibition, 48 hours vs 2% DMSO control, read-out: Compound Concentration (ppm) sufficient for ≥90% inhibition of growth, Rs
[8] = ≥90% inhibition, 48 hours vs 2% DMSO control, read-out: Compound Concentration (ppm) sufficient for ≥90% inhibition of growth, St
[9] = ≥90% inhibition, 48 hours vs 2% DMSO control, read-out: Compound Concentration (ppm) sufficient for ≥90% inhibition of growth, Fv
[10] = ≥90% inhibition, 48 hours vs 2% DMSO control, read-out: Compound Concentration (ppm) sufficient for ≥90% inhibition of growth, Bc
[11] = ≥90% inhibition, 48 hours vs 2% DMSO control, read-out: Compound Concentration (ppm) sufficient for ≥90% inhibition of growth, Fm
[12] = ≥90% inhibition, 48 hours vs 2% DMSO control, read-out: Compound Concentration (ppm) sufficient for ≥90% inhibition of growth, Pc
[13] = ≥90% inhibition, 48 hours vs 2% DMSO control, read-out: Compound Concentration (ppm) sufficient for ≥90% inhibition of growth, Dm
[14] = ≥90% inhibition, 48 hours vs 2% DMSO control, read-out: Compound Concentration (ppm) sufficient for ≥90% inhibition of growth, Cg
[15] = ≥90% growth inhibition, 48 hours, vs 2% DMSO control, read-out: Compound Concentration (ppm) sufficient for ≥90% inhibition of St
[16] = ≥90% growth inhibition, 48 hours, vs 2% DMSO control, read-out: Compound Concentration (ppm) sufficient for ≥90% inhibition of Fm

SMILES | IC90 (Rhizoctonia solani (Rs); [7]) | IC90 (Septoria tritici (St); [8]) | IC90 [1, 9] | Septoria Leaf Blotch Control at a compound concentration of 25 ppm or lower [2] | Asian Soybean Rust Control at a compound concentration of 25 ppm or lower (Phakopsora pachyrhizi) | IC90 (Botrtyis cinerea (Bc); [10]) | IC90 [3, 11] | IC90 [4, 12] | IC90 (Diplodia maydis (Dm); [13]) | IC90 [5, 14] | Barley Powdery Mildew Control at a compound concentration of 10 ppm or lower [6] | Wheat Leaf Rust Control at a compound concentration of 10 ppm or lower (Puccinia triticina) | Wheat Fusarium Head Blight Control at a compound concentration of 25 ppm or lower (Fusarium graminearum) | Cucumber Powdery Mildew Control at a compound concentration of 10 ppm or lower (Sphaerotheca fuliginea) | IC90 (Septoria tritici (St); [15]) | IC90 [3, 16] | further results
COc1ccc(F)cc1[C@H](Cn1c(=O)n(C(C)(C)C(=O)NC(C)C)c(=O)c2c(C)c(-n3nccn3)sc21)OC1CCOCC1 [Compound I-030, (R)-2-(1-(2-(5-fluoro-2-methoxyphenyl)-2-((tetrahydro-2H-pyran-4-yl)oxy)ethyl)-5-methyl-2,4-dioxo-6-(2H-1,2,3-triazol-2-yl)-1,4-dihydrothieno[2,3-d]pyrimidin-3 (2H)-yl)-N-isopropyl-2-methylpropanamide] | 0.08 µg/mL (≈ 0.127 µM) | ≥ 2 µg/mL | 0.4 µg/mL (≈ 0.636 µM) | B (from 50 to 69% control of wheat septoria leaf blotch) | A (from 70% to 84% control of Asian soybean rust) | 0.4 µg/mL (≈ 0.636 µM) | 0.08 µg/mL (≈ 0.127 µM) | 50 µg/mL (≈ 79.5 µM) | ≥ 0.4 µg/mL | 0.4 µg/mL (≈ 0.636 µM) | AA (≥85% control of barley powdery mildew) | AA (≥85% control of wheat leaf rust) | B (from 50 to 69% control of wheat fusarium head blight) | AA (≥85% control of cucumber powdery mildew) |  |  | 
COc1ccccc1[C@H](Cn1c(=O)n(C(C)(C)C(=O)N2CCCC2)c(=O)c2c(C)c(-n3nccn3)sc21)OC1CCOCC1 [Compound I-034, (R)-1-(2-(2-methoxyphenyl)-2-((tetrahydro-2H-pyran-4-yl)oxy)ethyl)-5-methyl-3-(2-methyl-1-oxo-1-(pyrrolidin-1-yl)propan-2-yl)-6-(2H-1,2,3-triazol-2-yl)thieno[2,3-d]pyrimidine-2,4(1H,3H)-dione] | 0.08 µg/mL (≈ 0.128 µM) | ≥ 2 µg/mL | 0.4 µg/mL (≈ 0.642 µM) | B (from 50 to 69% control of wheat septoria leaf blotch) | AA (≥85% control of Asian soybean rust) | 0.4 µg/mL (≈ 0.642 µM) | 0.08 µg/mL (≈ 0.128 µM) | ≥ 10 µg/mL | ≥ 0.4 µg/mL | ≥ 0.4 µg/mL | AA (≥85% control of barley powdery mildew) | AA (≥85% control of wheat leaf rust) | C (from 25 to 49% control of wheat fusarium head blight) | AA (≥85% control of cucumber powdery mildew) |  |  | 
COCCCO[C@@H](Cn1c(=O)n(C(C)(C)C(=O)NC(C)C)c(=O)c2c(C)c(-n3nccn3)sc21)c1cc(F)ccc1OC [Compound I-084, (R)-2-(1-(2-(5-fluoro-2-methoxyphenyl)-2-(3-methoxypropoxy)ethyl)-5-methyl-2,4-dioxo-6-(2H-1,2,3-triazol-2-yl)-1,4-dihydrothieno[2,3-d]pyrimidin-3 (2H)-yl)-N-isopropyl-2-methylpropanamide] | 0.4 µg/mL (≈ 0.649 µM) | ≥ 10 µg/mL | 0.08 µg/mL (≈ 0.13 µM) | AA (≥85% control of wheat septoria leaf blotch) |  | 0.4 µg/mL (≈ 0.649 µM) | 0.08 µg/mL (≈ 0.13 µM) | > 50 µg/mL | 0.08 µg/mL (≈ 0.13 µM) | 0.4 µg/mL (≈ 0.649 µM) | AA (≥85% control of barley powdery mildew) | A (from 70% to 84% control of wheat leaf rust) |  |  |  |  | 
CCOC(=O)c1sc2c(c1C)c(=O)n([C@H](C)C(=O)NC(C)C)c(=O)n2C[C@H](OCCC#N)c1cc(F)ccc1OC [Compound I-220, (R)-ethyl-1-(2-(2-cyanoethoxy)-2-(5-fluoro-2-methoxyphenyl)ethyl)-3-((R)-1-(isopropylamino)-1-oxopropan-2-yl)-5-methyl-2,4-dioxo-1,2,3,4-tetrahydrothieno[2,3-d]pyrimidine-6-carboxylate] |  |  |  | B (from 50 to 69% control of wheat septoria leaf blotch) | B (from 50 to 69% control of Asian soybean rust) |  |  |  |  |  | AA (≥85% control of barley powdery mildew) | C (from 25 to 49% control of wheat leaf rust) | C (from 25 to 49% control of wheat fusarium head blight) | AA (≥85% control of cucumber powdery mildew) | > 50 µg/mL | 0.08 µg/mL (≈ 0.136 µM) | Compound Concentration (ppm) sufficient for ≥90% inhibition of Rs (Rhizoctonia solani (Rs); ≥90% growth inhibition, 48 hours, vs 2% DMSO control): 0.08 ppm; IC90 ([1]; ≥90% growth inhibition, 48 hours, vs 2% DMSO control, read-out: Compound Concentration (ppm) sufficient for ≥90% inhibition of Fv): 0.4 µg/mL (≈ 0.68 µM)
COCCO[C@@H](Cn1c(=O)n([C@H](C)C(=O)NC(C)C)c(=O)c2c(C)c(-n3cccn3)sc21)c1cc(F)ccc1OC [Compound I-310, (R)-2-(1-((R)-2-(5-fluoro-2-methoxyphenyl)-2-(2-methoxyethoxy)ethyl)-5-methyl-2,4-dioxo-6-(1H-pyrazol-1-yl)-1,4-dihydrothieno[2,3-d]pyrimidin-3 (2H)-yl)-N-isopropylpropanamide] |  |  |  | B (from 50 to 69% control of wheat septoria leaf blotch) | C (from 25 to 49% control of Asian soybean rust) |  |  |  |  |  | AA (≥85% control of barley powdery mildew) | C (from 25 to 49% control of wheat leaf rust) | C (from 25 to 49% control of wheat fusarium head blight) | AA (≥85% control of cucumber powdery mildew) | > 50 µg/mL | 0.08 µg/mL (≈ 0.136 µM) | IC90 (Rhizoctonia solani (Rs); ≥90% growth inhibition, 48 hours, vs 2% DMSO control, read-out: Compound Concentration (ppm) sufficient for ≥90% inhibition of Rs): 0.08 µg/mL (≈ 0.136 µM); IC90 (Botrtyis cinerea (Bc); ≥90% growth inhibition, 48 hours, vs 2% DMSO control, read-out: Compound Concentration (ppm) sufficient for ≥90% inhibition of Bc): 2 µg/mL (≈ 3.4 µM); IC90 ([4]; ≥90% growth inhibition, 48 hours, vs 2% DMSO control, read-out: Compound Concentration (ppm) sufficient for ≥90% inhibition of Pc): > 50 µg/mL; IC90 (Diplodia maydis (Dm); ≥90% growth inhibition, 48 hours, vs 2% DMSO control, read-out: Compound Concentration (ppm) sufficient for ≥90% inhibition of Dm): ≥ 2 µg/mL; IC90 ([5]; ≥90% growth inhibition, 48 hours, vs 2% DMSO control, read-out: Compound Concentration (ppm) sufficient for ≥90% inhibition of Cg): 2 µg/mL (≈ 3.4 µM)

Reference: patent US10941157B2, “Pesticidal compositions and uses thereof” (Gilead Apollo, LLC, priority 2015, dated 2021)
